Some test systems named below: UACC-62 melanoma; HCT-15 colon; SK-MEL-5 melanoma; MDA-MB-435; TK-10 renal; SK-MEL-2 melanoma; MOLT-4 leukemia; OVCAR-3 ovarian; MALME-3M melanoma; PC-3 prostate; MDA-N; EKVX NSCLC; MCF7 breast; NCI-H522 lung; ACHN renal; M14 melanoma; HOP-92 NSCLC; NCI-H460 lung.
What all share (test): growth of human tumour cells (NCI), 48 h

We go through nine compounds from PubChem BioAssay (NCI).

Each structure is given as a SMILES string.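 Results reflect a 48-hour exposure of cells in 96-well plates to compound at five concentrations. TGI denotes the concentration required for complete inhibition of growth.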 Where only a bound is given, the exact number is not on record here.

For `Oc1ccc(-c2nc(-c3cccnc3)c(-c3ccc(Cl)cc3)[nH]2)cc1O`, the TGI with UACC-62 melanoma stood at 23.3 µM; with HCT-15 colon, 22.2 µM; in the assay on SK-MEL-5 melanoma, 27.6 µM; in the assay on MDA-MB-435, 30.3 µM; with TK-10 renal it was 26.7 µM; in the assay with SK-MEL-2 melanoma, 31.8 µM. Moreover, the TGI was greater than 100 µM in the assay with MOLT-4 leukemia; 14.5 µM in the assay on OVCAR-3 ovarian; 27 µM in the assay with MALME-3M melanoma; 21.2 µM in the assay with PC-3 prostate; 25.1 µM with MDA-N; 50.2 µM in the assay with EKVX NSCLC. The TGI stood at 24.2 µM in the assay with MCF7 breast, 4.68 µM in the assay on NCI-H522 lung, 26.1 µM in the assay on ACHN renal and 26.4 µM in the assay with M14 melanoma.
As to `CCOC(=O)C1=CNC(C(=O)OCC)C1c1cccn1-c1ccc(Cl)cc1[N+](=O)[O-]` (stereo not drawn), the TGI with UACC-62 melanoma came to 35 µM; in the assay on HCT-15 colon it was 46.6 µM; in the assay on HOP-92 NSCLC, 51.7 µM; in the assay on SK-MEL-5 melanoma, 30.3 µM; in the assay with MDA-MB-435, 58.7 µM; with TK-10 renal, 54.9 µM. For the same compound, the TGI is 34.8 µM in the assay with SK-MEL-2 melanoma; 61.3 µM in the assay on NCI-H460 lung; 59.5 µM in the assay with MOLT-4 leukemia; 30.3 µM in the assay on OVCAR-3 ovarian; 68.9 µM in the assay on PC-3 prostate; 54.8 µM in the assay with MDA-N. Also, the TGI was 75.9 µM with EKVX NSCLC; 60.6 µM with MCF7 breast; 35.2 µM in the assay on NCI-H522 lung; greater than 100 µM with ACHN renal; 44.9 µM in the assay with M14 melanoma.
Consider `O=C(NCCC1([N+](=O)[O-])CCN(C(=O)c2ccccc2)CC1)c1ccccc1`, for which the TGI with UACC-62 melanoma, in the assay on HCT-15 colon, with SK-MEL-5 melanoma, in the assay with MDA-MB-435, in the assay on TK-10 renal and in the assay on SK-MEL-2 melanoma was greater than 100 µM in each case. For the same compound, the TGI in the assay with NCI-H460 lung, with MOLT-4 leukemia, in the assay with MALME-3M melanoma, in the assay with PC-3 prostate, in the assay with MDA-N and in the assay on EKVX NSCLC was greater than 100 µM throughout. Further, the TGI with NCI-H522 lung, with ACHN renal and in the assay with M14 melanoma was greater than 100 µM in each case.
For `CCOC(=O)c1ccc(Nc2c3c(nc4ccccc24)CCCC3)cc1`, the TGI is greater than 100 µM in the assay on UACC-62 melanoma; greater than 100 µM with HCT-15 colon; greater than 72.6 µM with HOP-92 NSCLC; greater than 100 µM in the assay on SK-MEL-5 melanoma; greater than 100 µM with MDA-MB-435; greater than 100 µM with TK-10 renal. Further, the TGI in the assay on SK-MEL-2 melanoma, in the assay with NCI-H460 lung, in the assay on MOLT-4 leukemia, with OVCAR-3 ovarian, with PC-3 prostate and in the assay with EKVX NSCLC was greater than 100 µM in each case. Moreover, the TGI with MCF7 breast was greater than 100 µM; with NCI-H522 lung it was greater than 27.7 µM; with ACHN renal, greater than 100 µM; in the assay on M14 melanoma it was greater than 100 µM.
For `CC(=O)N=C1N(/C=C2\C(=O)Oc3ccccc3C2=O)C(=O)/C(=C/c2ccc(OC(C)=O)cc2)N1C`, the TGI in the assay with UACC-62 melanoma, with HCT-15 colon, in the assay with SK-MEL-5 melanoma, in the assay on MDA-MB-435, with SK-MEL-2 melanoma and with NCI-H460 lung was greater than 100 µM each time. Further, the TGI with MOLT-4 leukemia, in the assay with OVCAR-3 ovarian, in the assay on MALME-3M melanoma, in the assay on PC-3 prostate, in the assay on MDA-N and with EKVX NSCLC was greater than 100 µM each time. Further, the TGI in the assay with MCF7 breast, in the assay with NCI-H522 lung, in the assay on ACHN renal and in the assay on M14 melanoma was greater than 100 µM throughout.
As to `Cc1c(Cl)nc(Nc2nc3ccccc3[nH]2)nc1Cl`, the TGI in the assay with UACC-62 melanoma is greater than 100 µM; in the assay on HCT-15 colon, greater than 100 µM; with HOP-92 NSCLC, 18.6 µM; in the assay with SK-MEL-5 melanoma, greater than 100 µM; in the assay with MDA-MB-435, greater than 100 µM; in the assay with TK-10 renal, greater than 100 µM. For the same compound, the TGI with SK-MEL-2 melanoma, with NCI-H460 lung, with MOLT-4 leukemia, in the assay on MALME-3M melanoma, in the assay on PC-3 prostate and with MDA-N was greater than 100 µM each time. Besides, the TGI in the assay on EKVX NSCLC was 84.5 µM; with NCI-H522 lung, greater than 100 µM; in the assay on ACHN renal it was greater than 100 µM; with M14 melanoma it was greater than 100 µM.
In the case of `O=C(c1ccco1)N1CCCN(C(=O)c2ccco2)C1=S`, the TGI with UACC-62 melanoma, in the assay with HCT-15 colon, in the assay on SK-MEL-5 melanoma, in the assay with MDA-MB-435, with TK-10 renal and with SK-MEL-2 melanoma was greater than 100 µM each time. Besides, the TGI in the assay with NCI-H460 lung, in the assay with MOLT-4 leukemia, with OVCAR-3 ovarian, with MALME-3M melanoma, with PC-3 prostate and with MDA-N was greater than 100 µM each time. The TGI in the assay with EKVX NSCLC, in the assay with MCF7 breast, in the assay on ACHN renal and in the assay on M14 melanoma was greater than 100 µM each time.
Take `CCC12CCCN(Cc3ccccc3)C1c1c([nH]c3ccccc13)C(C(=O)OC)C2` (stereo not drawn): the TGI with UACC-62 melanoma, in the assay with HCT-15 colon, with HOP-92 NSCLC, in the assay on SK-MEL-5 melanoma, in the assay on MDA-MB-435 and in the assay with TK-10 renal was greater than 10 µM in each case. Also, the TGI with MOLT-4 leukemia, in the assay with OVCAR-3 ovarian, with MALME-3M melanoma, in the assay with PC-3 prostate, in the assay with MDA-N and in the assay with MCF7 breast was greater than 10 µM each time. The TGI in the assay on NCI-H522 lung, in the assay on ACHN renal and in the assay with M14 melanoma was greater than 10 µM each time.
As to `COc1cc(C2c3cc4c(cc3[C@@H](Nc3ccccc3)C3COC[C@H]23)OCO4)cc(OC)c1O` (stereo partly drawn), the TGI in the assay with HCT-15 colon was 12.9 µM; in the assay with SK-MEL-5 melanoma it was 68.9 µM; with TK-10 renal, greater than 100 µM; with NCI-H460 lung, 5 µM; in the assay on PC-3 prostate, greater than 100 µM; with MDA-N, greater than 100 µM. For the same compound, the TGI with EKVX NSCLC was greater than 100 µM; with MCF7 breast it was greater than 100 µM; in the assay on NCI-H522 lung, 25.8 µM; with ACHN renal, 3.82 µM; in the assay with M14 melanoma, greater than 100 µM.
